Data set [1] is described as follows: Influences of different crystalline forms on blood drug levels in rats (pharmacokinetic study, HPLC of plasma). It counts as in vivo. On the procedure: 1. Crystal Samples: crystalline form II and V of XLF-III-43, dispersant agent of crystalline form II (obtained by comminuting crystalline form II and V of XLF-III-43).
2. Methodology study of detecting blood drug level
(1) Experimental Conditions:
HPLC: waters 2690 chromatography system, 2487 UV detector, Milnicousamidem 32 chromatography management system. Column: 4.6×250 mm Spherisorb C18 5 μm; flow rate: 1.0 ml/min; column temperature: 25° C.; detection wavelength: 330 nm. After treated by solid phase extraction, plasma samples were directly injected and analyzed.
(4) Recovery experiment: extraction recoveries (greater than 75%) meet the requests that SFDA issued on methods of pharmacokinetic study.
(5) Sensitivity: minimum detectable amount was 2 ng/ml, the minimum limit of quantification was 5 ng/ml.

Data set [2] deals with acute renal function injury in mice induced by Cisplatin. Description: Effects of different crystalline forms of XLF-III-43 on acute renal function injury in mice induced by Cisplatin (serum BUN and Scr). It counts as in vivo, Male Kunming mice. To be noted: for BUN / BUN reduction (%) / Scr / Scr reduction (%): dose 25.0 × 3 mg/kg. On the procedure:
Objective: To observe the effects of different crystal forms of XLF-III-43 on acute renal function injury in mice induced by Cisplatin
Reagents: crystalline form I, II and V of XLF-III-43, all were prepared into suspensions with 0.5% sodium carboxymethylcellulose. Positive control: Losartan potassium, ATIRA Hangzhou Merck Sharp & Dohme Pharmaceutics Company, lot number: S1241. Crude drug of Cisplatin (DDP): Supplied by Shandong Qilu Pharmaceutics Company.
Animal: Male Kunming mice weighing 16 to 22 g were purchased from Institute of Laboratory Animal Sciences, Chinese Academy of Medical Sciences (Type II, Certificate No: SCXK-Jing 2000-0006). All the mice were feeded in standard breeding boxes, 5 per box, kept these boxes dry and clean, ventilate and sterilize animal room at fixed time, lightening time: 8:00-20:00, room temperature: 20-26° C., humidity: 40-70%, forage: clean breeding forage, bought from Animal Center of Academy of Military Medical Sciences, Certificate No: SCXX-(army) 2002-001.
Serum biochemistry kit: Beijing Beihua Refined Chemical Limited-liability Company
Apparatus: WELLSCAN MK3 Scanner, Germent SIGMA3K 15 Centrifuge, TGL-16G Freezing Centrifuge, Shanghai Anting Scientific Instrument Factory, Votex, American Bohemia N.Y Company.
Animal grouping: According to body weights, male Kunming mice weighing 18 to 22 grams were randomly divided into […] groups: control group, Cisplatin group (model group), Losartan potassium group, groups of three crystal forms of XLF-III-43, n=8 for each group.
Modeling and administrating: XLF-III-43 were dissolved in 0.5% sodium carboxymethylcellulose, Losartan potassium and Cisplatin were dissolved in physiological saline. Since two days before giving Cisplatin by peritoneal injection, Losartan potassium group and groups of three crystal forms of XLF-III-43 were intraperitoneally administered respectively. Control animals received an equal volume of physiological saline.
Serum parameters detecting: Blood samples were collected from the orbital venous plexus at day 3, 5, and 7 after injecting Cisplatin. Serum BUN and Scr were detected by serum biochemistry kit.

The mark [3] stands for this setting: one-time orally administered at 30 mg/kg, preliminary pharmacokinetic.
Setting [4] is: 3 days after injecting Cisplatin.
Where [5] appears, read: 5 days after injecting Cisplatin.
[6] abbreviates: 7 days after injecting Cisplatin.

Turning to “3-(3′-carboxy-4′-hydroxy-anilino-carbo-)-6-nitro-7-hydroxy-8-methyl-coumarin [XLF-III-43]”, the “time within which it could be detected in plasma” value in data set [1] (one-time orally administered at 30 mg/kg) is at most 36 h. The “detection in plasma at 48 h” value in data set [1] (one-time orally administered at 30 mg/kg, 48 h) is “could not be detected”. In addition, in data set [1] (setting [3]), the “maximum plasma concentration Cmax” value is 2000 ng/mL and the “peak time (Tmax)” value came to 30 min.
As to “3-(3′-carboxy-4′-hydroxy-anilino-carbo-)-6-nitro-7-hydroxy-8-methyl-coumarin [crystalline form V of XLF-III-43]”, the “dose-effect relationship of renal function protective effect” value in data set [2] (Cisplatin model) is given as “good dose-effect relationship”. Also, in data set [2] (Cisplatin model, compared among treated groups (crystalline form I, II, V, Losartan potassium)), the “renal function protective effect (serum Scr and BUN)” value is “best renal function protective effect”. The blood/plasma concentration result in data set [1] (oral, FIG. 22, within a certain period of time) is recorded as “higher blood concentration than crystalline form II of XLF-III-43”.
Turning to `CCCCc1nc(Cl)c(CO)n1Cc1ccc(-c2ccccc2-c2nn[nH]n2)cc1` [Losartan], in data set [2] (setting [4]), the BUN is 30.58 ± 4.19 mg/dL, the “BUN reduction (%)” value is −1.9%, the Scr is listed as 1.41 ± 1.00 mg/dL and the “Scr reduction (%)” value is 22.4%. Further, in data set [2] (setting [5]), the BUN stood at 31.75 ± 9.32 mg/dL, the “BUN reduction (%)” value is 24.6%, the Scr was found to be 1.16 ± 0.48 mg/dL and the “Scr reduction (%)” value is listed as 39.3%. Moreover, in data set [2] (setting [6]), the BUN came to 30.32 ± 2.89 mg/dL, the “BUN reduction (%)” value is given as 23.8%, the Scr is recorded as 1.74 ± 0.31 mg/dL and the “Scr reduction (%)” value is 34.7%.

The values are drawn from patent publication US8729280B2, “Five crystal forms, methods of preparation, pharmaceutical compositions and applications of XLF-III-43” (Institute of Mataria Medica, Chinese Academy of Medical …, priority 2008, dated 2014).
